Test results reported in ChEMBL document CHEMBL1201862, “PubChem BioAssay data set” (2004).
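Growth conditions: 96-well plates. Treatment: test compound, 48 hours, 5 concentrations. Analysis: linear interpolation between bracketing concentrations; unreached endpoints set to highest concentration. GI50 = concentration required for 50% inhibition of growth.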 Activity calls are given as the source filed them. No stated cut-off is given here; in the data, active = GI50 up to about 1.1 µM and inactive = higher.

Experiments:
Experiment in all cases: growth of human tumour cells (NCI), 48 h
[1] = system: T47D
[2] = system: UACC-257
[3] = system: Malme-3M
[4] = system: HL-60
[5] = system: BT-549
[6] = system: RXF 631
[7] = system: DMS-114
[8] = system: SNB-78

Measured: GI50

CN(C)c1ccc(/C=C2\C[C@H]3[C@@H]4CCc5cc(O)ccc5[C@H]4CC[C@]3(C)C2=O)cc1
inactive: [1] > 100 µM | [2] > 100 µM | [3] > 100 µM

CCn1c2ccccc2c2cc(NC(=O)c3c(C)[nH]c(=O)[nH]c3=S)ccc21
inactive: [1] > 100 µM | [4] 37 µM | [2] 70.3 µM | [3] 49.4 µM | [5] 31 µM

COc1cccc(NC(=O)CC(=O)NNCC(=O)Nc2nnc(-c3ccc(N(CCC#N)S(=O)(=O)c4ccccc4)cc3)s2)c1
inactive: [6] > 100 µM | [7] 41.6 µM | [8] > 100 µM | [3] 40.7 µM

COc1ccc(/C(Cl)=C(\C=O)c2ccc(Cl)c(Cl)c2)cc1OC
inactive: [6] 4.57 µM | [7] 12.4 µM | [4] 2.7 µM | [8] 4.28 µM | [3] 18.3 µM

C1CCC(OC2CSC2)OC1 (configuration not stated)
inactive: [1] > 100 µM | [2] > 100 µM

Cc1c2cnccc2c(C)c2c1c1ccccc1n2CCCCCCCl
inactive: [7] > 40.3 µM | [4] 10.1 µM | [2] > 33.1 µM | [8] 32.9 µM | [3] > 50 µM

CCNc1nnc(-c2nsc3ccccc23)s1
inactive: [4] > 100 µM | [2] > 100 µM | [8] 62.1 µM
